According to ChEMBL document CHEMBL1140390, “ERbeta ligands. Part 4: Synthesis and structure-activity relationships of a series of 2-phenylquinoline derivatives” (Bioorg Med Chem Lett, 2005):
pIC50: −log10 of the molar value.

How the values were obtained:
Estrogen receptor beta = Estrogen receptor beta (Homo sapiens, UniProt Q92731)
Description: Binding affinity for human Estrogen receptor beta

Estrogen receptor = target: T1, Estrogen receptor (Homo sapiens, UniProt P03372)
T1 sequence (P03372 whole entry): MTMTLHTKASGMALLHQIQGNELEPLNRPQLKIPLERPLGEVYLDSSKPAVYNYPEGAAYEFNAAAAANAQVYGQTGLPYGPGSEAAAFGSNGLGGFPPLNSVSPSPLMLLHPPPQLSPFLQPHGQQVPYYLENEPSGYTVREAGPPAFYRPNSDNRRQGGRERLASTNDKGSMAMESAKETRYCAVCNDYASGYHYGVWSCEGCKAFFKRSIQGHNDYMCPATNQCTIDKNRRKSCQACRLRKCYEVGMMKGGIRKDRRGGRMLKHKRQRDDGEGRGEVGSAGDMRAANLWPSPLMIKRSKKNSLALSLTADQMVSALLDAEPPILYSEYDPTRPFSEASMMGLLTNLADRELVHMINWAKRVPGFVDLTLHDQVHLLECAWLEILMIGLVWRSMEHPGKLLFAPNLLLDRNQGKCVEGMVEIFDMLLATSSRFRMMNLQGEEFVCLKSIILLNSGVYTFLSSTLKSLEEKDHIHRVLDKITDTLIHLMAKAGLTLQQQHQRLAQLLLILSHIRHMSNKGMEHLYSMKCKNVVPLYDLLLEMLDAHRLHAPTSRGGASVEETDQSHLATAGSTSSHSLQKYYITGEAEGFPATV
Description: Binding affinity for human Estrogen receptor alpha

Estrogen receptor beta, sequence (Q92731 whole entry): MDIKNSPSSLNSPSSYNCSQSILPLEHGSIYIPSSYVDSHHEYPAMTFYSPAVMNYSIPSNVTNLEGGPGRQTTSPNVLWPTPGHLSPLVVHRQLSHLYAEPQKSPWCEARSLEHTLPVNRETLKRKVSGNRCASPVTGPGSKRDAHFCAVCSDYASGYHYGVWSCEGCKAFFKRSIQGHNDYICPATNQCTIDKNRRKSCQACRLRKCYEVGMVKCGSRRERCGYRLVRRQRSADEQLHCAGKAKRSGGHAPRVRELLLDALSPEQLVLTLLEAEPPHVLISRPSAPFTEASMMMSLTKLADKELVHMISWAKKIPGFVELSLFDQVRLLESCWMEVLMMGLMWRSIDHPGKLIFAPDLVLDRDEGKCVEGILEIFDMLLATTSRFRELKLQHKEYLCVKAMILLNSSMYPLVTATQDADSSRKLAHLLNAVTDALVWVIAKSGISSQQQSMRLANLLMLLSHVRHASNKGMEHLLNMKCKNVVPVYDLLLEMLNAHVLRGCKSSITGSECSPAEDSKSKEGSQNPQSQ

| SMILES | pIC50 (Estrogen receptor beta) | pIC50 (Estrogen receptor) |
| --- | --- | --- |
| C#Cc1cc(-c2ccc(O)c(F)c2)nc2ccc(O)cc12 | 7.57 | 5.88 |
| C#Cc1cc(-c2ccc(O)cc2)nc2ccc(O)cc12 | 7.12 |  |
| Oc1ccc(-c2ccc3c(Br)c(O)ccc3n2)cc1 | 7.06 | 5.94 |
| CCc1cc(-c2ccc(O)cc2)nc2ccc(O)cc12 | 7.28 | 6.20 |
| CC(=O)c1cc(-c2ccc(O)cc2)nc2ccc(O)cc12 | 6.66 | 5.50 |
| Oc1ccc2nc(-c3cc(F)c(O)c(F)c3)cc(Br)c2c1 | 7.44 | 6.11 |
| CCc1cc(-c2ccc(O)c(F)c2)nc2ccc(O)cc12 | 7.10 | 5.76 |
| C=Cc1cc(-c2ccc(O)c(F)c2)nc2ccc(O)cc12 | 7.36 | 6.41 |
| Oc1ccc(-c2ccc3cc(O)ccc3n2)cc1 | 6.77 | 5.75 |
| CC(O)c1cc(-c2ccc(O)c(F)c2)nc2ccc(O)cc12 (stereo not drawn) | < 5.30 | < 5.30 |
| Oc1ccc(-c2ccc3c(Cl)c(O)ccc3n2)cc1 | 7.52 | 6.20 |
| Oc1ccc2nc(-c3ccc(O)c(F)c3)cc(-c3ccccc3)c2c1 | 6.68 | 5.74 |
